Source: US20090227546A1, “PHARMACEUTICAL COMPOSITION OF DROSPIRENONE AND ETHYNYLESTRADIOL” (Laboratories Liconse, S.A., priority 2004, published 2009)

Tests used:
[1] = Dissolution profile of crystalline drospirenone tablets in acidic medium (USP 27 apparatus 2); type: physicochemical; settings: HCl 0.1 N, regardless of the size of the particle, FIG. 16
Description: The dissolution profiles were obtained from tablets containing drospirenone in a crystalline state with different sized particles, using a dissolution apparatus designated in the U.S. Pharmacopoeia, Edition 27, apparatus 2, at 50 rpm and 900 ml of lauryl sulfate 0.07% in a strongly acidic medium, HCl 0.1 N, thermostatized at 37° C.

[2] = Dissolution of drospirenone in methanol as granulation solvent; type: physicochemical
Description: About 16.00 ml of the dichloromethane/methanol solution at about a 6:1 ratio were placed in a stainless steel stirring apparatus. Next, about 0.0306 g of ethynylestradiol, non-micronized with a particle size no less than about 50 μm (addition of an excess of about 2% was foreseen to make up for losses during the process), were added under constant stirring. The mixture was shaken/stirred until completely dissolved. About 3.0600 g of drospirenone, non-micronized with a particle size no less than about 50 μm (addition of an excess of about 2% was foreseen to make up for losses during the process), were added under constant stirring until completely dissolved. Once dissolved, about 3.4000 g of polyvinylpyrrolidone K-30 were added with stirring until completely dissolved.
Only about 16 ml methanol was used in this example, which compares to substantially the same volume as the about 16 ml methylene chloride/methanol (about 6:1) used in example 1. […] Recall that in example 1 drospirenone was completely dissolved. Again, the process was conducted in accordance with example 1, including the step of “Granulation—Drying” where a planetary-type mixer was used and the mixture kneaded. The name of the final batch granulated: LPDIMet-16 ml.
In an extra experiment related to this Example 2, in the step “Dissolution of the active ingredients and binder” methanol was added until complete dissolution. […]

C[C@]12CCC(=O)C=C1[C@@H]1C[C@@H]1[C@H]1[C@@H]3[C@@H]4C[C@@H]4[C@@]4(CCC(=O)O4)[C@@]3(C)CC[C@@H]12 [drospirenone, 6β,7β,15β,16β-dimethylene-3-oxo-17α-pregn-4-ene-21,17-carbolactone]
stability of drospirenone in an acidic medium [1]: instability
amount of methanol required for complete dissolution ([2]; about 3.06 g drospirenone and about 0.0306 g ethynylestradiol): about 154.3 ml
dissolution of drospirenone in about 16 ml methanol ([2]; about 3.06 g drospirenone, methanol only): not enough for the total dissolution
